According to publication PMC6301270 (MedChemComm, 2018):
“Also recorded” adds a separate entry of the source. Like-named read-outs stand apart in the source and are kept apart here.

Legend:
[1] = system: T.b. brucei (strain 427) bloodstream form parasites; test: Trypanosoma brucei assay, dose–response (this study); assay type: cell-based; conditions: for IC50: Trypanosoma brucei; for Selectivity index: calculated as IC50(HeLa)/IC50(T.bb)
HeLa cells = test: HeLa cell assay (cytotoxicity); assay type: cell-based; conditions: Homo sapiens
Method: HeLa cells were cultured in DMEM medium supplemented with 10% fetal bovine serum and antibiotics (penicillin/streptomycin/amphotericin B) at 37 °C in a 5% CO2 incubator. On the day prior to compound addition, cells were plated in 96-well plates at 2 × 10^4 cells per well. Compounds were added to the cells in 3-fold serial dilutions and incubation at 37 °C in a 5% CO2 incubator continued for 48 hours. Twenty μl resazurin reagent (0.5 mM resazurin in phosphate-buffered saline) was added to each well and, after a 2-hour incubation, fluorescence (Exc560/Em590) was measured in a plate reader. Percentage cell viability in drug-treated wells was calculated from the fluorescent readings obtained relative to those in wells containing control, untreated cells. Plots of % cell viability vs. log[compound] were used to determine IC50 values by non-linear regression analysis using GraphPad Prism.

T.b. brucei [2] = system: T.b. brucei; design: method as in https://www.pathogenbox.org/; conditions: ref https://www.pathogenbox.org/, cited from earlier work; for IC50: Table 1, kinetoplastid category, read-out: T. brucei brucei IC50 (μM) Pathogen Box
T. brucei culture = system: T. brucei culture; design: method as in PMID 22148754, PMID 20360736; conditions: through selective inhibition of T. brucei N-myristoyl transferase; cited from earlier work
[3] = system: T.b. brucei (strain 427) bloodstream form parasites; test: T.b. brucei single concentration screen (10 μM); conditions: for viability at 10 µM: Trypanosoma brucei, read-out: T.b.brucei % viability (10 µM); for T.b.brucei % viability (10 µM): single concentration 10 µM, % parasite viability relative to non-treated parasites
T.b. brucei [4] = system: T.b. brucei; design: method as in PMID 28674055; conditions: cited from earlier work; for IC50: Table 1, kinetoplastid category of the Pathogen Box, read-out: T. brucei brucei IC50 (μM) Duffy et al.
HepG2 cells = system: HepG2 cells; design: method as in Pathogen Box; conditions: ref Pathogen Box, read-out: CC50 against HepG2 cells; cited from earlier work
[5] = system: M. tuberculosis CTP synthase, PyrG; design: method as in PMID 28475832; conditions: cited from earlier work
mycobacterial = system: mycobacterial; design: method as in PMID 23268609; conditions: inhibits the ATPase domain of DNA gyrase B; cited from earlier work
plasmodial = system: plasmodial; design: method as in PMID 22390538; conditions: screen of the SoftFocus kinase library; cited from earlier work
Leishmaniasis donovani = system: Leishmaniasis donovani; design: method as in Duffy et al.; conditions: ref Duffy et al.; cited from earlier work
kinetoplastid = system: kinetoplastid; design: method as in PMID 25740547; conditions: screen of 1.8 million compounds; cited from earlier work
[6] = HeLa, 48 h, read-out: HeLa IC50 (μM)
[7] = Table 1, kinetoplastid category, 48 hours at 37 °C, resazurin, read-out: T. brucei brucei IC50 (μM) This study
[8] = Table 1, HeLa cells, 48 hours, resazurin, read-out: HeLa IC50
[9] = Table 2, remaining Pathogen Box, 48 hours at 37 °C, resazurin, read-out: T. brucei brucei IC50 (μM) This study
[10] = pIC50 values (M), read-out: pIC50 (T.b. brucei), this study (converted)
[11] = Table 2, HeLa cells, 48 hours, resazurin, read-out: HeLa IC50

Compound | IC50 (T.b. brucei [2]) [µM] | viability at 10 µM [3] [%] | IC50 [1, 7] [µM] | IC50 (HeLa cells; [8]) [µM] | T.b. brucei inhibition in words, this study [1] | also measured
Cc1nn(C)c(C)c1NS(=O)(=O)c1c(Cl)cc(-c2ccnc(N3CCNCC3)c2)cc1Cl [Compound 1, Cc1nn(C)c(C)c1NS(=O)(=O)c2c(Cl)cc(cc2Cl)c3ccnc(c3)N4CCNCC4] | < 0.13 | 2 |  |  |  | IC50 ([1]; 48 h, read-out: T. brucei brucei IC50 (μM) This study): 11 µM; IC50 (HeLa cells; [6]): 2.8 µM; Inhibition of T. brucei culture (T. brucei culture): moderate inhibitor
Cc1noc(C)c1COc1cccc(C(=O)N=c2[nH]cccc2C)c1 [Compound 20, Cc1onc(C)c1COc2cccc(c2)C(=O)Nc3ncccc3C] | 2.07 | 7 | 0.62 | > 25 |  | 
CO[C@@H](C(=O)N1Cc2[nH]nc(NC(=O)c3ccc(N4CCN(C)CC4)cc3)c2C1)c1ccccc1 [Compound 21, CO[C@@H](C(=O)N1Cc2[nH]nc(NC(=O)c3ccc(cc3)N4CCN(C)CC4)c2C1)c5ccccc5] | 1.02 | 4.5 | 0.3 | > 25 |  | 
CNC(=O)C1Cc2ccccc2N1C(=O)Cc1ccc(F)cc1 (stereo not shown) [Compound 22, CNC(=O)C1Cc2ccccc2N1C(=O)Cc3ccc(F)cc3] | 0.49 | 7 | 0.71 | > 25 |  | 
c1ccc(Oc2ccc(-c3cc(C4CCOCC4)[nH]n3)cc2)cc1 [Compound 23, C1CC(CCO1)c2cc(n[nH]2)c3ccc(Oc4ccccc4)cc3] | 7.58 | 82 |  |  |  | IC50 (T.b. brucei [4]): ≥ 1 µM; T.b.brucei % viability (10 µM) [3]: did not sufficiently reduce cell viability
Cc1nn2c(=O)c3c([nH]c2c1-c1ccc(Cl)cc1)CCCC3 [Compound 24, Cc1nn2C(=O)C3=C(CCCC3)Nc2c1c4ccc(Cl)cc4] |  | 19 |  |  |  | IC50 (T.b. brucei [4]): ≥ 1 µM; T.b. brucei activity in words, Pathogen Box (T.b. brucei [2]): sub-micromolar range; T.b.brucei % viability (10 µM) [3]: did not sufficiently reduce cell viability
COc1ccc(C2=NN(C3CCCCCC3)C(=O)C2(C)C)cc1OCCCCOc1ccc(-c2nn[nH]n2)cc1 [Compound 25, COC1=C(OCCCCOC2=CC=C(C3=NNN=N3)C=C2)C=C(C4=NN(C5CCCCCC5)C(C4(C)C)=O)C=C1] | 0.79 | 8.5 | 1.7 | > 25 |  | 
Cc1nn2c(O)c3c(nc2c1-c1ccc(F)cc1)CCCC3 [Compound 28, Cc1nn2c(O)c3CCCCc3nc2c1c4ccc(F)cc4] | 1.94 | 12 | 4.6 | > 25 |  | 
CC1=Nc2ccc(Cl)cc2C(O)(c2ccc(C)cc2)N1CCN1CCCCC1 (stereo not shown) [Compound 29, CC1=Nc2ccc(Cl)cc2C(O)(N1CCN3CCCCC3)c4ccc(C)cc4] | 0.98 | 2 | 0.98 | 15 |  | 
c1ccc(Oc2ccc(-c3cc(N4CCNCC4)[nH]n3)cc2)cc1 [Compound 30, C1CN(CCN1)c2cc(n[nH]2)c3ccc(Oc4ccccc4)cc3] | 0.99 | 0.3 | 2.3 | 11 |  | 
CN1CCN(S(=O)(=O)c2ccc(-c3ccc4c(Nc5ncc(Cl)cn5)ccnc4c3)cc2)CC1 [Compound 31, CN1CCN(CC1)S(=O)(=O)c2ccc(cc2)c3ccc4c(Nc5ncc(Cl)cn5)ccnc4c3] | 3.78 | 6.4 | 2.2 | > 25 |  | 
CCOC(=O)c1noc(N)c1-c1ccccc1 [Compound 34, CCOC(=O)c1noc(N)c1c2ccccc2] | 1.22 | 12 | 0.41 | > 25 | mid-nanomolar inhibitor | T.b. brucei activity in words, Pathogen Box (T.b. brucei [2]): low micromolar range
CCc1c(C)nc(-n2nc(C)cc2NC(=O)c2ccccc2SC)[nH]c1=O [Compound 39, CCC1=C(C)N=C(NC1=O)n2nc(C)cc2NC(=O)c3ccccc3SC] |  | 2 |  |  | sub-micromolar inhibitors; also recorded: sub-micromolar range | IC50 [1, 9]: 0.59 µM; IC50 [1, 10]: < 1 µM; Selectivity index [1]: 4.4; IC50 (HeLa cells; [11]): 2.6 µM; CC50 (HepG2 cells): 1.3 µM
CC(Oc1ccccc1)C(=O)Nc1nc(-c2ccccn2)cs1 (stereo not shown) [Compound 40, CC(Oc1ccccc1)C(=O)Nc2nc(cs2)c3ccccn3] |  | 2 |  |  | sub-micromolar range | IC50 [1, 9]: 0.76 µM; IC50 [1, 10]: < 1 µM; IC50 (HeLa cells; [11]): 8.4 µM; Inhibition of M. tuberculosis CTP synthase, PyrG [5]: moderate inhibitors
O=C(COc1cccc(F)c1)Nc1nc(-c2ccccn2)cs1 [Compound 43, Fc1cccc(OCC(=O)Nc2nc(cs2)c3ccccn3)c1] |  | 3 |  |  |  | IC50 (HeLa cells; [6]): > 25 µM; Inhibition of M. tuberculosis CTP synthase, PyrG [5]: moderate inhibitors
CN1CCN(CCCOc2ncc(Nc3ncc(-c4ccc(C(F)(F)F)c(F)c4)nc3C(N)=O)cn2)CC1 [Compound 46, CN1CCN(CCCOc2ncc(Nc3ncc(nc3C(=O)N)c4ccc(c(F)c4)C(F)(F)F)cn2)CC1] |  | 3 |  |  | sub-micromolar inhibitors; also recorded: sub-micromolar range | IC50 [1, 9]: 0.87 µM; IC50 [1, 10]: < 1 µM; Selectivity index [1]: 5.5; IC50 (HeLa cells; [11]): 4.8 µM; CC50 (HepG2 cells): 3.9 µM; In vitro anti-mycobacterial activity (mycobacterial): potent
O=C(Nc1ccccc1)c1ccc(-c2cc3ccncc3cc2OC2CCNCC2)s1 [Compound 51, O=C(Nc1ccccc1)c2ccc(s2)c3cc4ccncc4cc3OC5CCNCC5] |  | 1 |  |  | selectively inhibited T.b. brucei, albeit moderately | IC50 [1, 9]: 1 µM; Selectivity index [1]: 7.5; IC50 (HeLa cells; [11]): 7.5 µM; T.b. brucei inhibition in words, Duffy et al. (T.b. brucei [4]): moderate inhibition
COc1cc(-c2cc(-c3ccc(S(C)(=O)=O)cc3)cnc2N)ccc1O [Compound 53, COc1cc(ccc1O)c2cc(cnc2N)c3ccc(cc3)S(=O)(=O)C] |  | 1 |  |  | sub-micromolar inhibitors; also recorded: sub-micromolar range; also recorded: activity in the nanomolar range | IC50 [1, 9]: 0.33 µM; IC50 [1, 10]: < 1 µM; IC50 (HeLa cells; [11]): > 25 µM; Anti-plasmodial activity (plasmodial): potent and selective; Inhibition of Leishmaniasis donovani (Leishmaniasis donovani): moderate inhibitor
O=C(Nc1ccc(C(F)(F)F)c(C(F)(F)F)c1)c1cc(Cl)ccc1O [Compound 66, Oc1ccc(Cl)cc1C(=O)Nc2ccc(c(c2)C(F)(F)F)C(F)(F)F] |  | 42 |  |  |  | T.b. brucei inhibition in words, Duffy et al. (T.b. brucei [4]): sub-micromolar inhibitor
TCMDC 142497 [Compound 70] |  |  |  |  |  | Kinetoplastid inhibition (kinetoplastid): potent kinetoplastid inhibitor
